Earlier results as cited in US7739091B2, “Method for estimating protein-protein binding affinities” (The Research Foundation of State University of New York, priority 2006, dated 2010).

Settings: side chain flanked by peptide bonds, water to n-octanol

C[C@H](N)C(=O)O [Ala]
transfer free energy: 0.87 kcal/mol

N[C@@H](Cc1c[nH]cn1)C(=O)O [His]
transfer free energy: 0.92 kcal/mol

N[C@@H](CO)C(=O)O [Ser]
transfer free energy: 0.85 kcal/mol

N[C@@H](Cc1ccc(O)cc1)C(=O)O [Tyr]
transfer free energy: -0.8 kcal/mol

C[C@@H](O)[C@H](N)C(=O)O [Thr]
transfer free energy: 0.95 kcal/mol

N[C@@H](Cc1ccccc1)C(=O)O [Phe]
transfer free energy: -1.81 kcal/mol
